Patent US8404643B2, “Metastin derivatives and use thereof” (priority 2005, dated 2013)
Square brackets hold non-standard residues; d marks the D form. Peptide text beside a SMILES is read from it. * marks the point of attachment. Phe(4-Cl) = N[C@@H](Cc1ccc(Cl)cc1)C(=O)O; Phe(4-F) = N[C@@H](Cc1ccc(F)cc1)C(=O)O; Desaminotyrosyl = O=C(CCc1ccc(O)cc1)*; Phe(2-F) = N[C@@H](Cc1ccccc1F)C(=O)O; Arg(Me) = CNC(=N)NCCC[C@H](N)C(=O)O; Dap(CONH2) = NC(=O)NC[C@H](N)C(=O)O; Hyp = O=C(O)[C@@H]1C[C@@H](O)CN1; d4Pal = N[C@H](Cc1ccncc1)C(=O)O; Thz = O=C(O)[C@@H]1CSCN1; Dab = NCC[C@H](N)C(=O)O; Aib = CC(C)(N)C(=O)O; NHPentyl = CCCCCN*; Bn = c1ccc(C*)cc1; azaGly = NNC(=O)O; NHcPr = C1CC1N*

target: T1, hOT7T175 (Homo sapiens, UniProt Q969F8); assay: Assay for intracellular Ca ion level-increasing activity using FLIPR; assay type: cell-based; conditions: hOT7T175/CHO cells, relative to Metastin (1-54)
T1 construct: expressed in transfected cells
Procedure, shortened: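 CHO/dhfr− cells stably transfected with hOT7T175, selected for high metastin response, loaded with Fluo3-AM for 1 h at 37 °C in HANKS/HBSS (pH 7.4) with probenecid. Peptides were diluted from 1×10^−3 M DMSO stock into HANKS/HBSS with 2.5 mM probenecid, 0.2% BSA, 0.1% CHAPS; intracellular Ca rise read by FLIPR.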

T1 sequence (Q969F8 whole entry L364H): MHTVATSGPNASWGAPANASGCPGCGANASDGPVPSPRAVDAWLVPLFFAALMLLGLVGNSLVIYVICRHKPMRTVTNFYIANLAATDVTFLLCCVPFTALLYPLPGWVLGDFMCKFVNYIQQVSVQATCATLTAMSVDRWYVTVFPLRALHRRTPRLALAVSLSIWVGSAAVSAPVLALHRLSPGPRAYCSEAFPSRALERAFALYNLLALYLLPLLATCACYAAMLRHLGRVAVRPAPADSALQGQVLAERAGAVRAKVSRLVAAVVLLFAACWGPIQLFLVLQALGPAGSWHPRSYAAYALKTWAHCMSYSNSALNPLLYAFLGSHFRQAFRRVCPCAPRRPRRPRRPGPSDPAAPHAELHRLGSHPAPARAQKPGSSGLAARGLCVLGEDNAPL

| Compound | Specific Activity: intracellular Ca ion level-increasing activity [specific activity to Metastin (1-54)] |
| --- | --- |
| CNC(=N)NCCC[C@H](NC(=O)[C@H](CC(C)C)NC(=O)NNC(=O)[C@H](Cc1ccccc1)NC(=O)[C@@H](NC(=O)[C@H](CNC(N)=O)NC(=O)[C@@H](Cc1ccncc1)NC(=O)[C@@H](Cc1ccc(O)cc1)NC(C)=O)[C@@H](C)O)C(=O)N[C@@H](Cc1c[nH]c2ccccc12)C(N)=O [Compound No. 718, Ac-D-Tyr-D-Pya(4)-Alb-Thr-Phe-AzaGly-Leu-Arg(Me)-Trp-NH2] (Ac-[dY][d4Pal][Dap(CONH2)]TF[azaGly]L[Arg(Me)]W-NH2) | 2.6 |
| CCCCCNC(=O)C[C@H](NC(=O)[C@@H](Cc1c[nH]c2ccccc12)NC(=O)[C@@H](Cc1ccc(O)cc1)NC(C)=O)C(=O)N[C@H](C(=O)N[C@@H](Cc1ccccc1)C(=O)NNC(=O)N[C@@H](CC(C)C)C(=O)N[C@@H](CCCNC(=N)NC)C(=O)N[C@@H](Cc1c[nH]c2ccccc12)C(N)=O)[C@@H](C)O [Compound No. 714, Ac-D-Tyr-D-Trp-Asp(NHPen)-Thr-Phe-AzaGly-Leu-Arg(Me)-Trp-NH2] (Ac-[dY][dW]D(NHPentyl)TF[azaGly]L[Arg(Me)]W-NH2) | 0.7 |
| CNC(=N)NCCC[C@H](NC(=O)[C@H](CC(C)C)NC(=O)NNC(=O)[C@H](Cc1ccccc1F)NC(=O)[C@@H](NC(=O)[C@H](CC(N)=O)NC(=O)CNC(=O)[C@@H](Cc1ccc(O)cc1)NC(C)=O)[C@@H](C)O)C(=O)N[C@@H](Cc1c[nH]c2ccccc12)C(N)=O [Compound No. 783, Ac-D-Tyr-Gly-Asn-Thr-Phe(2F)-AzaGly-Leu-Arg(Me)-Trp-NH2] (Ac-[dY]GNT[Phe(2-F)][azaGly]L[Arg(Me)]W-NH2) | 8.8 |
| Ac-D-Tyr-D-Trp-Asn-D-Pro-Phe-AzaGly-Leu-Arg(Me)-Trp-NH2 (Ac-[dY][dW]N[dP]F[azaGly]L[Arg(Me)]W-NH2; SMILES CNC(=N)NCCC[C@H](NC(=O)[C@H](CC(C)C)NC(=O)NNC(=O)[C@H](Cc1ccccc1)NC(=O)[C@H]1CCCN1C(=O)[C@H](CC(N)=O)NC(=O)[C@@H](Cc1c[nH]c2ccccc12)NC(=O)[C@@H](Cc1ccc(O)cc1)NC(C)=O)C(=O)N[C@@H](Cc1c[nH]c2ccccc12)C(N)=O) [Compound No. 719] | 3.8 |
| CNC(=N)NCCC[C@H](NC(=O)[C@H](CC(C)C)NC(=O)NNC(=O)[C@H](Cc1ccccc1)NC(=O)c1ccc(CN(Cc2ccccn2)Cc2ccccn2)cc1)C(=O)N[C@@H](Cc1c[nH]c2ccccc12)C(N)=O [Compound No. 801, 4-[Bis-(2-Pyridylmethyl)aminomethyl]benzoyl-Phe-AzaGly-Leu-Arg(Me)-Trp-NH2] | 11.1 |
| CNC(=N)NCCC[C@H](NC(=O)[C@H](CC(C)C)NC(=O)NNC(=O)[C@H](Cc1ccc(Cl)cc1)NC(=O)[C@@H](NC(=O)[C@H](CC(N)=O)NC(=O)[C@H](CCC(=O)O)NC(=O)[C@@H](Cc1ccc(O)cc1)NC(C)=O)[C@@H](C)O)C(=O)N[C@@H](Cc1c[nH]c2ccccc12)C(N)=O [Compound No. 759, Ac-D-Tyr-Glu-Asn-Thr-Phe(4Cl)-AzaGly-Leu-Arg(Me)-Trp-NH2] (Ac-[dY]ENT[Phe(4-Cl)][azaGly]L[Arg(Me)]W-NH2) | 1.9 |
| CNC(=N)NCCC[C@H](NC(=O)[C@H](CC(C)C)NC(=O)NNC(=O)[C@H](Cc1ccccc1)NC(=O)[C@@H](NC(=O)[C@H](CC(=O)NC1CC1)NC(=O)[C@@H](Cc1c[nH]c2ccccc12)NC(=O)[C@@H](Cc1ccc(O)cc1)NC(C)=O)[C@@H](C)O)C(=O)N[C@@H](Cc1c[nH]c2ccccc12)C(N)=O [Compound No. 715, Ac-D-Tyr-D-Trp-Asp(NHcPr)-Thr-Phe-AzaGly-Leu-Arg(Me)-Trp-NH2] (Ac-[dY][dW]D(NHcPr)TF[azaGly]L[Arg(Me)]W-NH2) | 1.6 |
| CNC(=N)NCCC[C@H](NC(=O)[C@H](CC(C)C)NC(=O)NNC(=O)[C@H](Cc1ccccc1)NC(=O)c1ccc(NC(N)=O)cc1)C(=O)N[C@@H](Cc1c[nH]c2ccccc12)C(N)=O [Compound No. 860, 4-Ureidobenzoyl-Phe-AzaGly-Leu-Arg(Me)-Trp-NH2] | 1.3 |

More lines, now with the values ahead:

| Specific Activity: intracellular Ca ion level-increasing activity [specific activity to Metastin (1-54)] | Compound |
| --- | --- |
| 3.4 | CNC(=N)NCCC[C@H](NC(=O)[C@H](CC(C)C)NC(=O)NNC(=O)[C@H](Cc1ccccc1)NC(=O)[C@@H](NC(=O)[C@H](CC(N)=O)NC(=O)[C@H](CC(C)C)NC(=O)[C@@H](Cc1ccc(O)cc1)NC(C)=O)[C@@H](C)O)C(=O)N[C@@H](Cc1c[nH]c2ccccc12)C(N)=O [Compound No. 743, Ac-D-Tyr-Leu-Asn-Thr-Phe-AzaGly-Leu-Arg(Me)-Trp-NH2] (Ac-[dY]LNTF[azaGly]L[Arg(Me)]W-NH2) |
| 1.0 | CNC(=N)NCCC[C@H](NC(=O)[C@H](CC(C)C)NC(=O)NNC(=O)[C@H](Cc1ccccc1)NC(=O)[C@@H](NC(=O)[C@H](CC(N)=O)NC(=O)[C@@H]1C[C@@H](OCc2ccccc2)CN1C(=O)[C@@H](Cc1ccc(O)cc1)NC(C)=O)[C@@H](C)O)C(=O)N[C@@H](Cc1c[nH]c2ccccc12)C(N)=O [Compound No. 781, Ac-D-Tyr-Hyp(Bzl)-Asn-Thr-Phe-AzaGly-Leu-Arg(Me)-Trp-NH2] (Ac-[dY][Hyp](Bn)NTF[azaGly]L[Arg(Me)]W-NH2) |
| 1.5 | CNC(=N)NCCC[C@H](NC(=O)[C@H](CC(C)C)NC(=O)NNC(=O)[C@H](Cc1ccccc1)NC(=O)[C@@H](NC(=O)[C@H](CC(N)=O)NC(=O)C(C)(C)NC(=O)[C@@H](Cc1ccc(O)cc1)NC(C)=O)[C@@H](C)O)C(=O)N[C@@H](Cc1c[nH]c2ccccc12)C(N)=O [Compound No. 727, Ac-D-Tyr-Aib-Asn-Thr-Phe-AzaGly-Leu-Arg(Me)-Trp-NH2] (Ac-[dY][Aib]NTF[azaGly]L[Arg(Me)]W-NH2) |
| 1.4 | CNC(=N)NCCC[C@H](NC(=O)[C@H](CC(C)C)NC(=O)NNC(=O)[C@H](Cc1ccccc1)NC(=O)[C@@H](NC(=O)[C@H](CC(N)=O)NC(=O)[C@@H](CCC(N)=O)NC(=O)[C@@H](Cc1ccc(O)cc1)NC(C)=O)[C@@H](C)O)C(=O)N[C@@H](Cc1c[nH]c2ccccc12)C(N)=O [Compound No. 738, Ac-D-Tyr-D-Gln-Asn-Thr-Phe-AzaGly-Leu-Arg(Me)-Trp-NH2] (Ac-[dY][dQ]NTF[azaGly]L[Arg(Me)]W-NH2) |
| 1.0 | CNC(=N)NCCC[C@H](NC(=O)[C@H](CC(C)C)NC(=O)NNC(=O)[C@H](Cc1ccccc1)NC(=O)[C@@H](NC(=O)[C@H](CCN)NC(=O)[C@@H]1C[C@@H](O)CN1C(=O)[C@@H](Cc1ccc(O)cc1)NC(C)=O)[C@@H](C)O)C(=O)N[C@@H](Cc1c[nH]c2ccccc12)C(N)=O [Compound No. 864, Ac-D-Tyr-Hyp-Dab-Thr-Phe-AzaGly-Leu-Arg(Me)-Trp-NH2] (Ac-[dY][Hyp][Dab]TF[azaGly]L[Arg(Me)]W-NH2) |
| 1.1 | CNC(=N)NCCC[C@H](NC(=O)[C@H](CC(C)C)NC(=O)NNC(=O)[C@H](Cc1ccccc1)NC(=O)[C@@H](NC(=O)[C@H](CC(N)=O)NC(=O)[C@@H]1C[C@@H](O)CN1C(=O)CCc1ccc(O)cc1)[C@@H](C)O)C(=O)N[C@@H](Cc1c[nH]c2ccccc12)C(N)=O [Compound No. 888, 3-(p-Hydroxyphenyl)propionyl-Hyp-Asn-Thr-Phe-AzaGly-Leu-Arg(Me)-Trp-NH2] (Desaminotyrosyl-[Hyp]NTF[azaGly]L[Arg(Me)]W-NH2) |
| 0.8 | CNC(=N)NCCC[C@H](NC(=O)[C@H](CC(C)C)NC(=O)NNC(=O)[C@H](Cc1ccccc1)NC(=O)[C@@H](NC(=O)[C@H](CCC(N)=O)NC(=O)[C@@H]1C[C@@H](O)CN1C(=O)[C@@H](Cc1ccc(O)cc1)NC(C)=O)[C@@H](C)O)C(=O)N[C@@H](Cc1c[nH]c2ccccc12)C(N)=O [Compound No. 843, Ac-D-Tyr-Hyp-Gln-Thr-Phe-AzaGly-Leu-Arg(Me)-Trp-NH2] (Ac-[dY][Hyp]QTF[azaGly]L[Arg(Me)]W-NH2) |
| 2.3 | CNC(=N)NCCC[C@H](NC(=O)[C@H](CC(C)C)NC(=O)NNC(=O)[C@H](Cc1ccc(F)cc1)NC(=O)[C@@H](NC(=O)[C@H](CC(N)=O)NC(=O)[C@@H]1C[C@@H](O)CN1C(=O)[C@@H](Cc1ccc(O)cc1)NC(C)=O)[C@@H](C)O)C(=O)N[C@@H](Cc1c[nH]c2ccccc12)C(N)=O [Compound No. 787, Ac-D-Tyr-Hyp-Asn-Thr-Phe(4F)-AzaGly-Leu-Arg(Me)-Trp-NH2] (Ac-[dY][Hyp]NT[Phe(4-F)][azaGly]L[Arg(Me)]W-NH2) |
| 1.8 | CNC(=N)NCCC[C@H](NC(=O)[C@H](CC(C)C)NC(=O)NNC(=O)[C@H](Cc1ccccc1)NC(=O)[C@@H](NC(=O)[C@H](CC(N)=O)NC(=O)[C@@H](Cc1ccc(O)cc1)NC(C)=O)[C@@H](C)O)C(=O)N[C@@H](Cc1c[nH]c2ccccc12)C(N)=O [Compound No. 777, Ac-D-Tyr-Asn-Thr-Phe-AzaGly-Leu-Arg(Me)-Trp-NH2] (Ac-[dY]NTF[azaGly]L[Arg(Me)]W-NH2) |
| 1.4 | CNC(=N)NCCC[C@H](NC(=O)[C@H](CC(C)C)NC(=O)NNC(=O)[C@H](Cc1ccccc1)NC(=O)[C@@H](NC(=O)[C@H](CC(N)=O)NC(=O)[C@@H]1CSCN1C(=O)[C@@H](Cc1ccc(O)cc1)NC(C)=O)[C@@H](C)O)C(=O)N[C@@H](Cc1c[nH]c2ccccc12)C(N)=O [Compound No. 724, Ac-D-Tyr-Thz-Asn-Thr-Phe-AzaGly-Leu-Arg(Me)-Trp-NH2] (Ac-[dY][Thz]NTF[azaGly]L[Arg(Me)]W-NH2) |
